Biological target: T1, E-selectin (Homo sapiens, UniProt P16581)
T1 construct: expressed in transfected cells
T1 sequence (P16581 22-610): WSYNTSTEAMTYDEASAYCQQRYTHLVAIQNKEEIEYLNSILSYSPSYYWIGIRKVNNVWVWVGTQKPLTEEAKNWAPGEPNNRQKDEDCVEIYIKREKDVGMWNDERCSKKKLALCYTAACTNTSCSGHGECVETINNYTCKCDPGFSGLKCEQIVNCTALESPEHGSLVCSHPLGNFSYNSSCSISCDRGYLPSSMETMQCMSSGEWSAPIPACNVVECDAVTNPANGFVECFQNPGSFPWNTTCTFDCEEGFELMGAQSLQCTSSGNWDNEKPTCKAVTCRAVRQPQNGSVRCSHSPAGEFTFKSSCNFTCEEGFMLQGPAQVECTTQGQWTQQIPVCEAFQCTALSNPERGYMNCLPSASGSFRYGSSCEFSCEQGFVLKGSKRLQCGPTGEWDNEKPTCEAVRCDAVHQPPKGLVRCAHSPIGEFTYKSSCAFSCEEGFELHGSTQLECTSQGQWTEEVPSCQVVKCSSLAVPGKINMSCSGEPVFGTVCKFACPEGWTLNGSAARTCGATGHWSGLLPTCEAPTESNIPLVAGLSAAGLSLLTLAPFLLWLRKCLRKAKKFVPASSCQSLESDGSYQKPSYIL
Experiment: Inhibition of E-selectin mediated adhesion of 3H-thymidine labelled U937 cells to E-selectin expressing CHO cells
Format: cell-based
Conditions: U937 binding to E-selectin expressing CHO cells, 4° C., 1 hour
Method: The test compounds were assayed to determine their effectiveness at inhibiting E-selectin mediated adhesion between a leucocytic cell line, U937, which expresses ligands for E-selectin, and a Chinese Hamster Ovary cell line which stably expresses E-selectin. The assay has been validated with a commercial known ligand of the E-selectin, 3'-sialyl-3-fucosyl lactose (3S'3FL).
A 96 well plate was seeded with E-selectin expressing CHO cells which were confluent on the day of the assay.
U937 cells were incubated overnight with ^3 H thymidine. (Incubation conditions: 2×10^5 U937 cells per ml, 0.0751 μCi ^3 H thymidine).
Hanks Balanced salts solution, 25 mM HEPES, 0.1% azide.
The compounds were dissolved in 1 ml of assay medium. For E8, 10% methanol was added to achieve a homogenous solution.
The pH of the compounds was adjusted to approximately pH 7.2.
The ^3 H thymidine count value at each concentration of inhibitor is the average of six replicates. Maximum binding was measured by binding U937 cells to E-Selectin CHO cells in the absence of any test compounds.
Background was measured by U937 binding to untransfected CHO cells.
On the day of assay the 96 well plate was washed 3 times in ice cold assay medium. 50 μl of test sample was added to each well and incubated on ice for 1 hour. Meanwhile the U937 cells were washed 3 times in ice cold assay medium. resuspended at a concentration of 3×10^6 cells per ml and then 50 μl was added to each plate. The plates were kept on ice and allowed to incubate at 4° C. for 1 hour. Then they were washed ×3 and the remaining cells solubilised and the radioactivity in the samples counted.
The U937 cells that were used in the 1D2 control were pre-incubated in the presence of 0.1 mg/ml gammaglobulin before addition to the plate.

CC(=O)N[C@H]1[C@H]([C@H](O)[C@H](O)CO)O[C@@](O[C@H]2[C@@H](O)[C@@H](CO)O[C@@H](O[C@H]3[C@H](O[C@@H]4O[C@@H](C)[C@@H](O)[C@@H](O)[C@@H]4O)[C@@H](O)C(O)O[C@@H]3CO)[C@@H]2O)(C(=O)O)C[C@@H]1O (stereo partly shown) [3'S3FL, 3'-sialyl-3-fucosyl lactose, reference compound]
inhibition at 500 µM (0.5 mM): 54%

COC(=O)C1(OCCCC(=O)CC2(O)C(C)OC(OC)C(O)C2O)CC(O)C(NC(C)=O)C(C(O)C(O)CO)O1 [E7, α-O-Methyl-4R-[{5"N-acetyl-α2"-O-neuraminidylmethyl ester}-5'-oxy-2'-oxo-pent-1'-yl]-L-fucopyranoside]
inhibition at 17100 µM (17.1 mM): 65%

COC1OC(C)C(O)(CC(=O)CCCOC2(C(=O)O)CC(O)C(NC(C)=O)C(C(O)C(O)CO)O2)C(O)C1O [E8, α-O-Methyl-4R-[{N-acetyl-α2"-neuraminidylsodium carboxylate}5'-oxy-2'-oxo-pent-1'-yl]-L-fucopyranoside]
inhibition at 26800 µM (26.8 mM, 10% methanol added): 18.5%

COC(=O)C1(OCCCC=CC(O)CC2(O)C(C)OC(OC)C(O)C2O)CC(O)C(NC(C)=O)C(C(O)C(O)CO)O1 [E21, α-O-Methyl-4R-[{N-acetyl-α2"-neuraminidylmethyl}7'-oxy-2'R and S-hydroxy-hept-3'-en-1'-yl]-L-fucopyranoside]
inhibition at 30700 µM (30.7 mM): 21%

— US5703059A, “Disaccharide ligands for selectins” (British Biotech Pharmaceuticals Ltd., priority 1993, dated 1997)
